Patent publication US6211214A, “Biphenyl ether oxazolines and their use as pest-control agents” (Bayer Aktiengesellschaft, priority 1995, dated 2001)
Where two headings read alike, the source gives them in different places.

Experiment: log p (partition coefficient octanol/water, determined experimentally from reversed phase HPLC)
Assay type: physicochemical
Conditions: for chromatographic logP: reversed phase hplc
Description: [log p=logarithm of the partition coefficient p of the substance between the solvents octanol and water, determined experimentally from reversed phase HPLC]

chromatographic logP (A isomer)	chromatographic logP	chromatographic logP (B isomer)	SMILES	further results
5.53	–	5.61	CC(COc1ccc(-c2ccc(C3COC(c4ccccc4Cl)=N3)cc2)cc1)=NOC(C)C (stereo not drawn) [Example 135]	–
–	5.02	–	CC(=O)C(C)(C)Oc1ccc(-c2ccc(C3COC(c4ccccc4Cl)=N3)cc2)cc1Cl (stereo not drawn) [Example 173]	–
5.04	–	5.27	CCON=C(COc1ccc(-c2ccc(C3COC(c4c(F)cccc4F)=N3)cc2)cc1)c1ccc(OC)cc1 (stereo not drawn) [Example 150]	–
5.45	–	5.57	C=CCON=C(C)C(C)Oc1ccc(-c2ccc(C3COC(c4ccccc4Cl)=N3)cc2)cc1 (stereo not drawn) [Example 143]	–
5.58	–	5.29	CON=C(COc1ccc(-c2ccc(C3COC(c4c(F)cccc4F)=N3)cc2)cc1)c1ccc(C)c(C)c1 (stereo not drawn) [Example 189]	–
–	5.88	–	CCON=C(C)C(C)(C)Oc1ccc(-c2ccc(C3COC(c4c(F)cccc4Cl)=N3)cc2)cc1 (stereo not drawn) [Example 161]	–
–	4.62	–	Cc1ccc(C(=O)COc2ccc(-c3ccc(C4COC(c5c(F)cccc5F)=N4)cc3)cc2)cc1C (stereo not drawn) [Example 148]	–
6	–	5.79	CCON=C(COc1ccc(-c2ccc(C3COC(c4c(F)cccc4F)=N3)cc2)cc1)c1cc(Cl)ccc1Cl (stereo not drawn) [Example 192]	–
–	5.45	–	CON=C(C)C(C)(C)Oc1ccc(-c2ccc(C3COC(c4c(F)cccc4Cl)=N3)cc2)cc1 (stereo not drawn) [Example 160]	–
4.78	–	4.98	CON=C(COc1ccc(-c2ccc(C3COC(c4c(F)cccc4F)=N3)cc2)cc1)c1ccc(C(F)F)cc1 (stereo not drawn) [Example 138]	–
6.18	–	5.87	CCON=C(COc1ccc(-c2ccc(C3COC(c4c(F)cccc4F)=N3)cc2)cc1)c1cccc(C(F)(F)F)c1 (stereo not drawn) [Example 122]	–

Continued, molecule first:

SMILES	chromatographic logP (A isomer)	chromatographic logP	chromatographic logP (B isomer)	further results
CC(COc1ccc(-c2ccc(C3COC(c4c(F)cccc4F)=N3)cc2)cc1)=NOCc1ccccc1 (stereo not drawn) [Example 82]	5.15	–	–	–
CC(C)C(C#N)Oc1ccc(-c2ccc(C3COC(c4c(F)cccc4F)=N3)cc2)cc1 (stereo not drawn) [Example 17]	–	4.45	–	–
O=C(COc1ccc(-c2ccc(C3COC(c4c(F)cccc4F)=N3)cc2)cc1)c1ccc(OC(F)F)cc1 (stereo not drawn) [Example 114]	–	4.16	–	–
CCON=C(C)C(C)Oc1ccc(-c2ccc(C3COC(c4ccccc4Cl)=N3)cc2)cc1 (single isomer, unassigned) [Example 85]	–	5.4	–	–
C=CCON=C(C)C(C)Oc1ccc(-c2ccc(C3COC(c4c(F)cccc4F)=N3)cc2)cc1 (stereo not drawn) [Example 88]	5.04	–	5.13	–
CCON=C(C)C(C)(C)Oc1ccc(-c2ccc(C3COC(c4c(F)cccc4F)=N3)cc2)cc1 (stereo not drawn) [Example 99]	–	5.57	–	–
CCON=C(C)COc1ccc(-c2ccc(C3COC(c4c(F)cccc4F)=N3)cc2)cc1Cl (stereo not drawn) [Example 87]	5.39	–	5.19	–
C=CCN(CC=C)C(=O)COc1ccc(-c2ccc(C3COC(c4c(F)cccc4F)=N3)cc2)cc1 (stereo not drawn) [Example 47]	–	3.76	–	–
CCOC(=O)C(C)Oc1ccc(-c2ccc(C3COC(c4c(F)cccc4F)=N3)cc2)cc1 (stereo not drawn) [Example 3, 2-(2,6-difluorophenyl)-4-[4'-(1-ethoxycarbonyl-eth-1-yl-oxy)-biphenyl-4-yl]-1,3-oxazoline]	–	4.12	–	–
CCOC(=O)C(C)Oc1ccc(-c2ccc(C3COC(c4c(F)cccc4F)=N3)cc2)cc1 (stereo not drawn) [Example 12]	–	–	–	log p: 3.80
CCON=C(COc1ccc(-c2ccc(C3COC(c4c(F)cccc4F)=N3)cc2)cc1)C1CC1 (stereo not drawn) [Example 67]	–	–	–	log p (A isomer): 4.72; log p (B isomer): 4.61
CC(=NO)C(C)Oc1ccc(-c2ccc(C3COC(c4c(F)cccc4F)=N3)cc2)cc1 (stereo not drawn) [Example 64]	3.48	–	3.54	–
CCON=C(COc1ccc(-c2ccc(C3COC(c4c(F)cccc4F)=N3)cc2)cc1)c1cccc(Cl)c1 (stereo not drawn) [Example 116]	5.89	–	5.54	–
